Reference: patent US8314112B2 (Novartis AG, priority 2008, dated 2012)

biological target: T1, human ALK5 (kinase domain, ALK5 T204D) (Homo sapiens, UniProt P36897, T204D); assay: ALK5 kinase assay ([33P] phosphate incorporation into casein); type: biochemical; conditions: casein substrate, 1 μM unlabelled ATP
T1 construct: The kinase domain of human ALK5 (amino acids 200-503); made in house; host or cells: insect cells (baculovirus)
T1 sequence (P36897 200-503 T204D): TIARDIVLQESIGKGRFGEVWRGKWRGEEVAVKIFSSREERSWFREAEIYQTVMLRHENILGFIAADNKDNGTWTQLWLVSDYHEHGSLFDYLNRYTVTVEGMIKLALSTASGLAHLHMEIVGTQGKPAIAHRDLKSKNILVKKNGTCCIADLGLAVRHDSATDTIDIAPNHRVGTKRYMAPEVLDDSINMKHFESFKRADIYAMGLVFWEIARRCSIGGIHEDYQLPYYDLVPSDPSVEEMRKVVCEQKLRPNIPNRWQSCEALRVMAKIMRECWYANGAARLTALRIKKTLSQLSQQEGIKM
Experimental: The kinase activity of ALK5 is assessed by measuring radiolabelled phosphate [33P] incorporation in to the generic substrate, casein. The kinase domain of human ALK5 (amino acids 200-503) is fused to an N-terminal histidine tag. The kinase activity of ALK5 is rendered constitutive via point mutation at amino acid 204 (threonine to aspartate modification, ALK5 T204D) and the kinase construct is engineered to be expressed from a baculovirus expression construct in insect cells. The purified, recombinantly-expressed histidine-tagged ALK5 T204D protein is dissolved at 5.4 mg/ml in 50 mM Tris-HCl pH 8.0, 150 mM NaCl, 5 mM DTT. ALK5 T204D is dissolved to 2.5 μg/ml in assay buffer (Assay buffer: 20 mM Tris-HCl pH 7.4, 10 mM MgCl2, 2 mM MnCl2) on the day of use.
Test compounds and reference compounds are dissolved in assay buffer without DTT containing 5% (v/v) DMSO. Stock solutions of test and reference compounds are diluted in assay buffer with DTT (1.25 mM) containing 4.5% (v/v) DMSO. 10 μl of test or reference compound are added to the appropriate wells of 96 well U-bottomed plate. Total enzyme activity is determined by measuring ALK5 T204D activity in the absence of ALK5 kinase inhibitor reference compounds. Non-specific binding (NSB) is determined by measuring the activity of ALK5 T204D in the presence of ALK5 kinase inhibitor reference compounds. 10 μl of dephosphorylated casein stock solution (dephosphorylated casein is dissolved in ddH2O at 20 mg/ml) is added per well (200 μg/well final assay concentration). 20 μl of ALK5 T204D (2.5 μg/ml solution) is added per well (50 ng/well final assay concentration). The plates are left to incubate at room temperature for 10 minutes.
10 μl of ATP mix is added to the well to initiate the reaction (0.66 nM [^33P]ATP/1 μM unlabelled ATP/well final assay concentration). The ATP mix is prepared as follows, unlabelled ATP (3 mM) is dissolved in ddH2O and pH adjusted to 7.4. The stock concentration of [^33P]ATP is 10 μCi/μl. The appropriate volume of [^33P]ATP is added to unlabelled ATP solution such that the final assay concentration per well is 0.1 μCi. Following addition of the ATP mix, the plates are incubated at room temperature for 50 minutes. The kinase reaction is terminated by the addition of 50 μL Stop Buffer (20 mM Tris-HCl pH 7.4, 10 mM EDTA).
75 μl/well from the reaction plate is transferred to a Multiscreen-IP plate (MultiScreen-IP plates are prepared by added 50 μL of 70% (v/v) ethanol per well and incubated for 5 minutes at room temperature. The ethanol is removed by aspiration via a MultiScreen HTS Vaccum Manifold unit (Millipore, Cat no: MSVMHT500). The plates are washed twice by adding 200 μl/well ddH2O). The MultiScreen-IP plate is incubated at room temperature for 30 minutes to allowing binding of casein to the plate. The MultiScreen-IP plates are washed three times by adding 200 μl/well 100 mM phosphoric acid solution and the gasket is carefully removed from the back of the MultiScreen-IP plate and the plate dried in the oven for 30 minutes. The MultiScreen-IP plate is backsealed, 50 μL of Microscint™20 is added, then the plates are topsealed and radiolabelled casein detected and quantified on a TopCount™ plate-reader using the ^33P scintillation protocol.

SMILES | IC50 [nM]
Cc1cccc(-c2nc(-c3cncc(-c4cccc(CN(C)CCO)c4)c3)c3cc[nH]c3n2)n1 [Example 144, 2-[Methyl-(3-{5-[2-(6-methyl-pyridin-2-yl)-7H-pyrrolo[2,3-d]pyrimidin-4-yl]-pyridin-3-yl}-benzyl)-amino]-ethanol] | 19
Cc1cccc(-c2cc(-c3cncc(-c4ccc(CCC(=O)O)cc4)c3)c3cc[nH]c3n2)n1 [Example 159, 3-(4-{5-[6-(6-Methyl-pyridin-2-yl)-1H-pyrrolo[2,3-b]pyridin-4-yl]-pyridin-3-yl}-phenyl)-propionic acid] | 6.5
Cc1cccc(-c2nc(-c3cncc4c3CCCO4)c3cc[nH]c3n2)n1 [Example 126, 5-[2-(6-Methyl-pyridin-2-yl)-7H-pyrrolo[2,3-d]pyrimidin-4-yl]-3,4-dihydro-2H-pyrano[2,3-c]pyridine] | 229
CCOc1cncc(-c2cc(-c3cccc(C)n3)nc3[nH]ccc23)c1 [Example 58, 4-(5-Ethoxy-pyridin-3-yl)-6-(6-methyl-pyridin-2-yl)-1H-pyrrolo[2,3-b]pyridine] | 56
Cc1cccc(-c2cc(-c3cncc(OC(C)C)c3)c3cc[nH]c3n2)n1 [Example 64, 4-(5-Isopropoxy-pyridin-3-yl)-6-(6-methyl-pyridin-2-yl)-1H-pyrrolo[2,3-b]pyridine] | 250
Cc1cccc(-c2cc(-c3cncc(O)c3)c3cc[nH]c3n2)n1 [Example 107, 5-[6-(6-Methyl-pyridin-2-yl)-1H-pyrrolo[2,3-b]pyridin-4-yl]-pyridin-3-ol] | 43
Cc1cccc(-c2cc(-c3cncc(-c4cccc(CN5CCOCC5)c4)c3)c3cc[nH]c3n2)n1 [Example 90, 6-(6-Methyl-pyridin-2-yl)-4-[5-(3-morpholin-4-ylmethyl-phenyl)-pyridin-3-yl]-1H-pyrrolo[2,3-b]pyridine] | 66
COc1cncc(-c2nc(-c3cccc(C)n3)nc3[nH]ccc23)c1 [Example 3, 4-(5-Methoxy-pyridin-3-yl)-2-(6-methyl-pyridin-2-yl)-7H-pyrrolo[2,3-d]pyrimidine] | 130
Cc1cccc(-c2cc(-c3cncc(C4=CCNCC4)c3)c3cc[nH]c3n2)n1 [Example 111, 5-[6-(6-Methyl-pyridin-2-yl)-1H-pyrrolo[2,3-b]pyridin-4-yl]-1′,2′,3′,6′-tetrahydro-[3,4′]bipyridinyl] | 42
Cc1cccc(-c2nc(-c3cncc(-c4ccc(C(=O)N5CCN(C)CC5)cc4)c3)c3cc[nH]c3n2)n1 [Example 9, (4-methyl-piperazin-1-yl)-(4-{5-[2-(6-methyl-pyridin-2-yl)-7H-pyrrolo[2,3-d]pyrimidin-4-yl]-pyridin-3-yl}-phenyl)-methanone] | 13
Cc1cccc(-c2nc(-c3cncc(-c4cccc(CNCCO)c4)c3)c3cc[nH]c3n2)n1 [Example 147, 2-(3-{5-[2-(6-Methyl-pyridin-2-yl)-7H-pyrrolo[2,3-d]pyrimidin-4-yl]-pyridin-3-yl}-benzylamino)-ethanol] | 10
Cc1cccc(-c2cc(-c3cncc(NC(=O)CCN(C)C)c3)c3cc[nH]c3n2)n1 [Example 62, 3-Dimethylamino-N-{5-[6-(6-methyl-pyridin-2-yl)-1H-pyrrolo[2,3-b]pyridin-4-yl]-pyridin-3-yl}-propionamide] | 40
CNCc1ccc(-c2cncc(-c3cc(-c4cccc(C)n4)nc4[nH]ccc34)c2)cc1 [Example 73, Methyl-(4-{5-[6-(6-methyl-pyridin-2-yl)-1H-pyrrolo[2,3-b]pyridin-4-yl]-pyridin-3-yl}-benzyl)-amine] | 17
Cc1cccc(-c2nc(-c3cncc(-c4ccc(CN)cc4)c3)c3cc[nH]c3n2)n1 [Example 61, 4-{5-[2-(6-Methyl-pyridin-2-yl)-7H-pyrrolo[2,3-d]pyrimidin-4-yl]-pyridin-3-yl}-benzylamine] | 29
Cc1cccc(-c2nc(-c3cncc(-c4cncc(CN(C)C)c4)c3)c3cc[nH]c3n2)n1 [Example 75] | 310
Cc1cccc(-c2cc(-c3cncc(-c4ccc(CN(C)CC(=O)O)cc4)c3)c3cc[nH]c3n2)n1 [Example 154, [Methyl-(4-{5-[6-(6-methyl-pyridin-2-yl)-1H-pyrrolo[2,3-b]pyridin-4-yl]-pyridin-3-yl}-benzyl)-amino]-acetic acid acid] | 6.4
CNCc1ccc(-c2cncc(-c3nc(-c4cccc(C)n4)nc4[nH]ccc34)c2)cc1 [Example 39, Methyl-(4-{5-[2-(6-methyl-pyridin-2-yl)-7H-pyrrolo[2,3-d]pyrimidin-4-yl]-pyridin-3-yl}-benzyl)-amine] | 6
CCC(=O)Nc1cncc(-c2nc(-c3cccc(C)n3)nc3[nH]ccc23)c1 [Example 27, N-{5-[2-(6-Methyl-pyridin-2-yl)-7H-pyrrolo[2,3-d]pyrimidin-4-yl]-pyridin-3-yl}-propionamide] | 723
Cc1cccc(-c2nc(-c3cncc(-c4ccc(CN(C)C)cn4)c3)c3cc[nH]c3n2)n1 [Example 124, Dimethyl-{5′-[2-(6-methyl-pyridin-2-yl)-7H-pyrrolo[2,3-d]pyrimidin-4-yl]-[2,3′]bipyridinyl-5-ylmethyl}-amine] | 11
Cc1cccc(-c2cc(-c3cncc(-c4cccc(CN)c4)c3)c3cc[nH]c3n2)n1 [Example 86, 3-{5-[6-(6-Methyl-pyridin-2-yl)-1H-pyrrolo[2,3-b]pyridin-4-yl]-pyridin-3-yl}-benzylamine] | 8
Cc1cccc(-c2nc(-c3cncc(C#CCN4CCN(C)CC4)c3)c3cc[nH]c3n2)n1 [Example 122, 4-{5-[3-(4-methyl-piperazin-1-yl)-prop-1-ynyl]-pyridin-3-yl}-2-(6-methyl-pyridin-2-yl)-7H-pyrrolo[2,3-d]pyrimidine] | 45
Cc1cccc(-c2cc(-c3cncc(-c4ccc(CNCC(=O)O)cc4)c3)c3cc[nH]c3n2)n1 [Example 136, (4-{5-[6-(6-Methyl-pyridin-2-yl)-1H-pyrrolo[2,3-b]pyridin-4-yl]-pyridin-3-yl}-benzylamino)-acetic acid] | 10
Cc1cccc(-c2nc(-c3cncc(N4CCOCC4)c3)c3cc[nH]c3n2)n1 [Example 51, 2-(6-Methyl-pyridin-2-yl)-4-(5-morpholin-4-yl-pyridin-3-yl)-7H-pyrrolo[2,3-d]pyrimidine] | 660
CC(=O)NCCC(=O)Nc1cncc(-c2nc(-c3cccc(C)n3)nc3[nH]ccc23)c1 [Example 53, 3-Acetylamino-N-{5-[2-(6-methyl-pyridin-2-yl)-7H-pyrrolo[2,3-d]pyrimidin-4-yl]-pyridin-3-yl}-propionamide] | 570
Cc1cccc(-c2nc(-c3cncc(-c4cccc(N5CCCC5)c4)c3)c3cc[nH]c3n2)n1 [Example 18, 2-(6-Methyl-pyridin-2-yl)-4-[5-(3-pyrrolidin-1-yl-phenyl)-pyridin-3-yl]-7H-pyrrolo[2,3-d]pyrimidine] | 172
Cc1cccc(-c2nc(-c3cccnc3)c3cc[nH]c3n2)n1 [Example 2, 2-(6-methyl-pyridin-2-yl)-4-pyridin-3-yl-7H-pyrrolo[2,3-d]pyrimidine] | 380
Cc1cccc(-c2nc(-c3cncc(-c4ccccc4)c3)c3cc[nH]c3n2)n1 [Example 4, 2-(6-Methyl-pyridin-2-yl)-4-(5-phenyl-pyridin-3-yl)-7H-pyrrolo[2,3-d]pyrimidine] | 34
